Assay results published in ChEMBL document CHEMBL1201862, “PubChem BioAssay data set” (2004).
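Exposure lasted 48 hours, with cells grown in 96-well plates and compounds tested at five concentrations. Abbreviation: GI50, concentration required for 50% inhibition of growth.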 Activity calls are given as the source filed them. Cut-off read from the data, not from the text of the source: active = GI50 up to about 1.1 µM and inactive = higher.

Experiments:
Test in all cases: NCI-60 cell line screen, 48 h
[1] = system: A498
[2] = system: CAKI-1
[3] = system: HCC 2998
[4] = system: HOP-62
[5] = system: IGROV-1
[6] = system: KM12
[7] = system: LOX IMVI
[8] = system: NCI-H226
[9] = system: NCI-H460
[10] = system: OVCAR-3
[11] = system: OVCAR-5
[12] = system: SK-MEL-2
[13] = system: SK-MEL-5
[14] = system: SK-OV-3
[15] = system: SW-620
[16] = system: U-251
[17] = system: UACC-257
[18] = system: EKVX
[19] = system: OVCAR-8

Row | SMILES | GI50 [1] | GI50 [2] | GI50 [3] | GI50 [4] | GI50 [5] | GI50 [6] | GI50 [7] | GI50 [8] | GI50 [9] | GI50 [10] | GI50 [11] | GI50 [12] | GI50 [13] | GI50 [14] | GI50 [15] | GI50 [16] | GI50 [17] | GI50 [18] | GI50 [19]
1 | O=C(/C=C/c1ccccc1)/C=C/c1ccccc1 | > 100 µM (inactive) | 92.9 µM (inactive) | 37.8 µM (inactive) | > 100 µM (inactive) | 28.1 µM (inactive) | 18 µM (inactive) | 16.8 µM (inactive) | > 100 µM (inactive) | 27.5 µM (inactive) | 23 µM (inactive) | > 100 µM (inactive) | > 100 µM (inactive) | 33.1 µM (inactive) | 43 µM (inactive) | 17.4 µM (inactive) | 20.6 µM (inactive) | 24.4 µM (inactive) |  | 
2 | CNS(=O)(=O)NNS(=O)(=O)c1ccccc1 | > 100 µM (inactive) | > 100 µM (inactive) | > 100 µM (inactive) | > 100 µM (inactive) | > 100 µM (inactive) | > 100 µM (inactive) | > 100 µM (inactive) | > 100 µM (inactive) | > 100 µM (inactive) | > 100 µM (inactive) | > 100 µM (inactive) | > 100 µM (inactive) | > 100 µM (inactive) | > 100 µM (inactive) | > 100 µM (inactive) | > 100 µM (inactive) | > 100 µM (inactive) | > 100 µM (inactive) | > 100 µM (inactive)
3 | Brc1ccc2c(c1)C1=C(CO2)Cc2ccccc2O1 | 27.4 µM (inactive) | 18.2 µM (inactive) | 17.2 µM (inactive) | 15.6 µM (inactive) | 12.4 µM (inactive) | 19 µM (inactive) | 17.4 µM (inactive) | 17.5 µM (inactive) |  | 16.2 µM (inactive) | 19.1 µM (inactive) | 17.7 µM (inactive) | 15 µM (inactive) | 21.5 µM (inactive) | 23.4 µM (inactive) | 19.1 µM (inactive) | 17.9 µM (inactive) | 20.9 µM (inactive) | 20.7 µM (inactive)
4 | C=C1C(C)C2C(Cc3ccccc3)NC(=O)C23OC(=O)/C=C\CC(=O)CCC(C)C/C=C/C3C1O (stereo unspecified) | 1.37 µM (inactive) | 0.421 µM (active) | 6.19 µM (inactive) | 2 µM (inactive) | 3.42 µM (inactive) | 2.88 µM (inactive) | 0.875 µM (active) | 1.92 µM (inactive) | 5.85 µM (inactive) | 1.82 µM (inactive) | 8.69 µM (inactive) | 1.58 µM (inactive) | 3.71 µM (inactive) | 6.05 µM (inactive) | 1.36 µM (inactive) | 2.54 µM (inactive) | 1.36 µM (inactive) | 2.48 µM (inactive) | 2.54 µM (inactive)
5 | CCCCNC(=O)CCN(C(=O)O)S(=O)(=O)c1ccc(NC(=O)c2ccccc2)cc1 | > 100 µM (inactive) | > 100 µM (inactive) | > 100 µM (inactive) | > 100 µM (inactive) | > 100 µM (inactive) | > 100 µM (inactive) | 18.8 µM (inactive) | > 100 µM (inactive) | > 100 µM (inactive) | > 100 µM (inactive) | > 100 µM (inactive) | > 100 µM (inactive) | > 100 µM (inactive) | > 100 µM (inactive) | 14 µM (inactive) | 77.6 µM (inactive) | > 100 µM (inactive) | > 100 µM (inactive) | > 100 µM (inactive)
6 | C1C[N+]23CCC[N+]2(C1)CCC3 (stereo unspecified) | > 100 µM (inactive) | > 100 µM (inactive) | > 100 µM (inactive) | > 100 µM (inactive) | > 100 µM (inactive) | > 100 µM (inactive) | > 100 µM (inactive) | > 100 µM (inactive) | > 100 µM (inactive) | > 100 µM (inactive) | > 100 µM (inactive) | > 100 µM (inactive) | > 100 µM (inactive) | > 100 µM (inactive) | > 100 µM (inactive) | > 100 µM (inactive) | > 100 µM (inactive) | > 100 µM (inactive) | > 100 µM (inactive)
